From US20210267996A1, “Compounds for inhibition of inflammation” (Children`s Medical Center Corporation, priority 2018, published 2021)

What was measured:
Human GSDMD = target: T1, Human GSDMD (Homo sapiens, UniProt P57764); test: Liposome leakage assay (Tb3+/DPA), GSDMD plus caspase-11; type: biochemical; conditions: for IC50: WT GSDMD, caspase-11-triggered, read-out: IC50 of liposome leakage
T1 construct: His6-MBP (N, cleaved yes); made in house; host or cells: E. coli BL21 (DE3) for GSDMD; Sf9 for caspase-11
T1 sequence (P57764 1-484): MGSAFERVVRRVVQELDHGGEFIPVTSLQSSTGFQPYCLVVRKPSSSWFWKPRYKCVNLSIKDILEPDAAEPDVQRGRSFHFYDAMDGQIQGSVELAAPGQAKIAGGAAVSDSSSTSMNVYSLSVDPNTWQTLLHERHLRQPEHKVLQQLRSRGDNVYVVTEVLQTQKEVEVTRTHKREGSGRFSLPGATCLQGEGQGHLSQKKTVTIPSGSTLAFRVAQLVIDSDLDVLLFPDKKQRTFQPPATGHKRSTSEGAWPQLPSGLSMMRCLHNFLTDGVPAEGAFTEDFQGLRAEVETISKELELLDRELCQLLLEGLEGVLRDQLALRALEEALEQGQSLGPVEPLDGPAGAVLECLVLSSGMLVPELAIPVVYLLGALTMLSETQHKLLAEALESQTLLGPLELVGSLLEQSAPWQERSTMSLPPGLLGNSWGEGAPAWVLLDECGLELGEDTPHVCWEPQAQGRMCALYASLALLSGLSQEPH
Method: The lipid mixture was suspended in 1 mL Buffer A (20 mM HEPES, 150 mM NaCl, 50 mM sodium citrate, and 15 mM TbCl3) for 3 min. The suspension was pushed through 100 nm Whatman® Nuclepore™ Track-Etched Membrane 30 times to obtain homogeneous liposomes. The filtered suspension was purified by size exclusion column (Superose 6, 10/300 GL) in Buffer B (20 mM HEPES, 150 mM NaCl) to remove TbCl3 outside liposomes. […] The liposomes are diluted to 50 μM with Buffer C (20 mM HEPES, 150 mM NaCl and 50 μM DPA) for use in high-throughput screening.

IL-1β = IL-1β secretion by ELISA, THP-1 plus nigericin; type: cell-based, human; conditions: THP-1, 40 μM
Method: Measurement of cytokines: concentrations of IL-1 (3 in culture supernatants or mouse serum were measured by ELISA kit (R&D Systems) according to the manufacturer's instructions. […] The number of surviving cells was determined by CellTiter-Glo assay (FIGS. 4 and 6) and IL-1β in culture supernatants was assessed by ELISA (FIG. 8) 2 hrs later. […] The number of surviving cells was determined by CellTiter-Glo assay (FIGS. 5 and 7) and IL-1β in culture supernatants was assessed by ELISA (FIG. 9) 2.5 hrs later.

GSDMD pore formation = test: GSDMD membrane staining and pyroptotic bubbles, immunofluorescence; type: cell-based, human; conditions: 30 μM, 30 min after nigericin
Method: Immunostaining and confocal microscopy: cells grown on coverslips were fixed for 15 min with 4% paraformaldehyde in PBS, permeabilized for 5 min in 0.1% Triton X-100 in PBS and blocked using 5% BSA for 1 hr. Then, cells were stained with the indicated primary antibodies followed by incubation with fluorescent-conjugated secondary antibodies (Jackson ImmunoResearch). Nuclei were counterstained with DAPI (4,6-diamidino-2-phenylindole) (Sigma-Aldrich). Slides were mounted using Aqua-Poly/Mount (Dako). Images were captured using a laser scanning confocal microscope (Olympus Fluoview FV1000 Confocal System) with a 63× water immersion objective and Olympus Fluoview software (Olympus). All confocal images are representative of three independent experiments.
To assess which steps in NLRP3-mediated inflammation were inhibited post ASC speck formation, LPS-primed THP-1 cells were treated with vehicle or 30 μM z-VAD-fmk, disulfiram or Bay 11-7082 1 hr before adding nigericin, and cleavage and activation of caspase-1, GSDMD, and pro-IL-1β were analysed by immunoblot of whole cell lysates 30 min later (FIG. 50). Secretion of processed IL-1β was also assessed by immunoblot of culture supernatants. […] Because immunoblots are not quantitative, caspase-1 activity 30 min after adding nigericin was also assessed using a fluorescent substrate in intact cells. […] Next, the effect of z-VAD-fmk, disulfiram and Bay 11-7082 on LPS+nigericin-induced GSDMD pore formation was assessed by immunofluorescence microscopy using a monoclonal antibody that was generated that recognizes both uncleaved GSDMD and its pore form (FIGS. 53, 54, and 64-66). […]
Cell death was determined by CytoTox96 assay. […] Cell death was determined by CytoTox96 assay. […] Representative images of ASC specks (arrowheads) and mean±s.d. percent of cells with ASC specks analyzed 20 min later (FIG. 47). […] Caspase-1 activity was assayed 30 min after adding nigericin using a cell-permeable fluorescence dye FAM-YVAD-FMK (FIG. 52). […]

Row | SMILES | IC50 (Human GSDMD) [µM] | incubation time to inhibition of liposome leakage (Human GSDMD; time course, preincubation 2-90 min) [min] | effect of copper gluconate (Cu2+) on inhibition of liposome leakage (Human GSDMD; with Cu2+) | nigericin-induced IL-1β secretion (IL-1β) | GSDMD membrane staining and pyroptotic bubbles (GSDMD pore formation) | times less active than disulfiram at inhibiting liposome leakage (Human GSDMD; GSDMD plus caspase-11) [fold]
1 | CCN(CC)C(=S)SSC(=S)N(CC)CC [C-23, Tetraethylthiuram disulfide] | ~0.3 | ≤ 2 | only weakly increased | potency comparable to the pan-caspase inhibitor z-VAD-fmk | completely blocked | 
2 | Cc1ccc(S(=O)(=O)/C=C/C#N)cc1 [Bay 11-7082] | 6.81 ± 0.1 |  |  |  | completely blocked | 23
